# Measurements: US12421277B2, “Anti-aging salmon roe tripeptide and preparation method and application thereof” (Shenzhen Porshealth Bioengineering Co., Ltd., priority 2023, dated 2025)
# Where a SMILES comes first, the peptide text is derived from it.
# Assay: Blood absorption of YLP in rats, UPLC-MS/MS
# Settings: rat, in vivo, po, SD rats, intragastric 100 mg/kg bw
# Procedure: In this research, SD rats are used, and divided into three groups: a normal group and salmon YLP groups (with a daily dosage of 100 mg/kg bw). The rats are fasted but allowed to drink water 12 h before the experiment begins. At 15 min, 45 min, 90 min, 180 min and 360 min after intragastric administration, all the rats are anesthetized with the 3% pentobarbital sodium, and blood is collected from abdominal aortas, followed by euthanasia. […]
# • (1) The required samples are taken out for thawing, and uniformly mixed by a vortex. • (2) 40 μL of a mixed sample is taken, and 120 μL of methanol is added for shaking treatment for 10 min, and a resultant is centrifuged at a low temperature for 10 min. • (3) 70 μL of a supernatant solution is taken from the centrifuged sample for subsequent measurement. 4.2.2.2 Preparation of Standard Solution
# Chromatographic separation is performed by using a Waters ACQUITY UPLC I-CLASS ultra-high performance liquid chromatographic device. Specific conditions are as follows: chromatographic column Waters UPLC HSS T3 ([…], 2.1 mm×100 mm)—mobile phase: A phase (water, 0.1% formic acid), B phase (methanol)—flow rate: 0.3 mL/min—injection volume: 5.0 μL—column temperature: 40° C. —single sample analysis time: 8 min.
# A Waters XEVO TQ-XS tandem quadrupole mass spectrometer is used for mass spectrometry detection. Specific conditions are as follows: positive ion source voltage: 3.0 kV—cone voltage: 30 V—desolvation temperature: 500° C. —desolvation gas flow rate: […]—cone gas flow rate: […].
# Data is expressed in the form of Mean±SD. Graphpad is used for data processing and significance analysis. […] A target peak area in polypeptide metabolic data is calculated by using TargetLynx software, and an allowable error of a retention time is 15 s. Concentration calculation is based on a standard curve method to obtain quantitative results.
structure (smiles),measurement,setting,value
CC(C)C[C@H](NC(=O)[C@@H](N)Cc1ccc(O)cc1)C(=O)N1CCC[C@H]1C(=O)O [YLP] (H-Tyr-Leu-Pro-OH; N-terminus and C-terminus assumed),AUC,15-360 min,6.19 ng·h/mL
same,Cmax,"at 90 min, read-out: maximum content of YLP in blood",1.31 ± 0.44 ng/mL
same,Tmax,read-out: time of maximum content in blood (converted),1.5 h
